From patent US7612107B2, “Treatment and inhibition of disease conditions using flexible heteroarotinoids” (The Board of Regents of the University of Oklahoma, priority 2005, dated 2009)

Experiments:
Thrombospondin 4 (TSP4) = experiment: Real time rt-PCR and Western blot validation, thrombospondin 4; type: cell-based; conditions: OVCAR-3 1 μM (rt-PCR); A2780 10 μM (Western)
B16 mouse melanoma = experiment: B16 melanoma syngeneic tumor model; type: in vivo
Procedure: (§1) FIG. 12. Various Xenograft tumors stained with CD34 antibodies (brown) to identify endothelium. The B16 mouse melanoma cell line was established as a syngeneic tumor in an immunocompetent mouse model and the human Caki renal cancer and A2780 ovarian xenograft tumors in immunocompromised mice. The treated mice were gavaged with 60 mg/kg/day SHetA2 and the untreated were gavaged with solvent only. The tumors were excised and sections were stained with the anti-CD34 antibody to detect endothelial cells (brown stain).
(§2) Survival was the primary endpoint of those studies. […] Tumor growth was the primary endpoint of the renal cancer study.

dorsal skin = experiment: Topical irritancy in Skh hairless mice; type: in vivo; conditions: topical, dorsal skin, 4 days, 2-log dose range
Procedure: Female Skh hairless mice, 6-8 weeks old, were treated topically on the dorsal skin for 4 days over a 2-log concentration dose range with various compounds. Retinoic acid receptor-Hets were evaluated in A, while retinoic acid receptor-independent Flex-Hets were evaluated in B. Daily flaking and abrasion scores were combined to calculate a single cutaneous toxicity score for each mouse. Each treatment group consisted of 4 mice, and group averages were used to plot cutaneous toxicity against doses of the compounds.
Topical irritancy was evaluated according to published procedures (29). Briefly, female Skh hairless mice, 6-8 weeks old, were treated topically on the dorsal skin for 4 days over a 2-log concentration dose range with various compounds. Daily flaking and abrasion scores were combined to calculate a single cutaneous toxicity score for each mouse. Each treatment group consists of 4 mice, and group averages are used to plot cutaneous toxicity against dose of the retinoid compound.

[1] = tested on: A2780 ovarian xenograft tumors; experiment: A2780 ovarian xenograft tumor model; type: in vivo, mouse; conditions: ovarian cancer model
Procedure: as §1, §2

[2] = tested on: organotypic cultures of human ovarian cancer cell lines and primary cultures; experiment: Ovarian carcinoma organotypic cultures (TUNEL, histology); type: cell-based
Procedure: FIG. 17. Retinoid effects on ovarian carcinoma organotypic cultures. Organotypic cultures of OVCAR-3 (A, B, E, F, I and J), Caov-3 (C and G), SK-OV-3 (D and H), and O2 (K and L) were grown in the absence (−, top row and K) or presence (+, middle row and I, J and L) of retinoid HetA4 at a concentration of 1 μM in the media. All sections were stained with H&E except for […], which was stained with PAS to detect glycoproteins and glandular differentiation, and J, which was stained with the TUNEL assay to detect apoptosis. All magnifications are 40×.
To test our hypotheses, we evaluated the effects of clinically achievable concentrations of 4-HPR and Flex-Hets on growth, differentiation and apoptosis in ovarian tissue. A series of compounds with a variety of receptor activation profiles were evaluated. In order to evaluate therapeutic effects, we developed an organotypic culture model of ovarian tumors by growing established cell lines and primary cultures inside collagen gels. Monolayer cultures of cells are not accurate representations of in vivo tissue because they lack the types of interactions that cells have with other cells and with the extracellular matrix in vivo. These interactions are known to influence gene expression and thus the constitution and behavior of cells. In our organotypic model, the growth of tumor cells inside the collagen allows a representation of tumors that have invaded stromal tissue. In the presence of fibroblasts, established cell lines and primary cultures of ovarian cancer formed colonies inside the collagen, while normal or benign ovarian epithelial cells remained as single cells inside the collagen. Human ovarian cancer cell lines (OVCAR-3, Caov-3, SK-OV-3, A2780, UCI 101) and primary human cultures (borderline ovarian tumor (O1), serous papillary tumor (O2), benign ovarian cyst (O3)) were cultured inside and on top of a collagen gel seeded with 3T3 fibroblasts for one week. After further incubation in the presence or absence of 1 μM retinoid (media concentration) for 3, 7 or 14 days, cultures were fixed and sectioned for immunohistochemical analysis.
The TUNEL assay was used to evaluate apoptosis in fixed, paraffin embedded, cut sections of the treated and control cultures (FIG. 17). […] These two cellular outcomes appeared to be mutually exclusive.

C6 glioma = experiment: Rat glioma (brain cancer) model, MRI; type: in vivo; conditions: oral 60 mg/kg/day; vs untreated control
Procedure: FIG. 9. SHetA2 inhibition of Angiogenesis. C6 glioma cells were injected into the brains of 2 rats. One week later, one rat was gavaged with 60 mg/kg/day SHetA2 on each Monday, Wednesday and Friday. Blood vessels were imaged by MRI.
FIG. 10. […] C6 glioma cells were injected into the brains of 2 rats. One week later, one rat was gavaged with 60 mg/kg/day SHetA2 on each Monday, Wednesday and Friday. The blood flow was measured by MRI imaging.
FIG. 11. SHetA2 inhibition of glioma tumor growth. C6 glioma cells were injected into the brains of 2 rats. One week later, one rat was gavaged with 60 mg/kg/day SHetA2 on each Monday, Wednesday and Friday. The tumor size was measured by MRI imaging.
In this in vivo model, glioma cells are injected into the brains of rats and the growth of the tumor and development of blood vessels in the tumor is measured by magnetic resonance imaging (MRI).

CC1(C)CC(C)(C)c2cc(NC(=S)Nc3ccc([N+](=O)[O-])cc3)ccc2S1 [SHetA2]
Expression of TSP-4 at the RNA and protein levels (Thrombospondin 4 (TSP4)): inhibit expression
Survival (B16 mouse melanoma): improved survival
Topical irritancy (cutaneous toxicity score) (dorsal skin): did not induce topical irritancy
Survival [1]: improved survival
Induction of apoptosis (TUNEL) in organotypic cultures ([2]; 1 μM retinoid in media): Apoptosis was induced
Level of apoptosis relative to the other retinoids (TUNEL) ([2]; 1 μM retinoid in media): highest level of apoptosis
Rank as regulator of growth, differentiation and apoptosis among eleven retinoids ([2]; 1 μM, 3, 7 or 14 days): most potent regulator of growth, differentiation and apoptosis
Angiogenesis of glioma tumors (MRI) (C6 glioma): inhibited the angiogenesis
Growth of glioma tumors (MRI) (C6 glioma): inhibited the angiogenesis and growth of the tumors
